Reference: publication PMC4338649 (International Journal of Endocrinology and Metabolism, 2014)

Test system: infants with central diabetes insipidus
Experiment: Pharmacodynamics
Type: in vivo
Details: Case 2, IV administration of dDAVP; confirmed diagnosis of CDI

In the case of desmopressin [dDAVP], the “urine output and osmolality after IV administration” value is reported as “Normalization of urine output and osmolality”.
